These results are taken from patent US8796320B2, “1,3,4-Oxadiazole-2-carboxamide compound” (General Incorporated Association Pharma Valley Project …, priority 2009, dated 2014).

SMILES strings stand for the structures.

A word on the IC50: it is the concentration needed to halve the response being measured.

Assay [1] relates to STAT3. Put plainly: STAT3 transcription inhibition test (reporter gene method). Format: cell-based. The note with it: Homo sapiens; compound at 100 μM; STAT3 reporter HeLa stable cell line, oncostatin M 10 ng/mL, 4 hours; read-out: STAT3 transcription inhibitory activity (%). The method, then: The inhibition of STAT3 transcription was evaluated by using STAT3 reporter HeLa stable cell line (Panomics Inc., catalog No. RC0003), a cell line for the reporter gene method, and performing the following method according to the appendix included therein.
STAT3, reporter HeLa stable cell line subcultured and maintained in a Dulbecco's modified Eagle's medium (DMEM) containing 10% fetal bovine serum, 100 units/mL penicillin, and 100 μg/mL streptomycin was inoculated at a concentration of 40000 cells/well to a 96-well plate (white) and attached to the plate by overnight incubation at 37° C. under 5% CO2. After addition of each evaluation compound adjusted to various concentrations (adjusted with a DMSO solution), the cells were precultured for 1 hour. Then, oncostatin M for activating STAT3 was added at a final concentration 10 ng/mL, and the cells were further cultured at 37° C. under 5% CO2 for 4 hours. Luciferase activity derived from the cells was determined using Steady-Glo Luciferase Assay System (Promega Corp.), and STAT3 transcriptional activity scores were calculated according to the following formula: STAT3 transcriptional activity score (%)=100×(Lchem−L0)/(LDMSO−L0) • L0: luminescence intensity obtained without stimulation with oncostatin M • Lchem: luminescence intensity obtained by the addition of a test sample • LDMSO: luminescence intensity obtained by the addition of only a solvent for dissolving a test sample
The test results were indicated in the rate of inhibition of STAT3 transcription by each compound at a concentration of 100 μM.
For orientation: In a reporter assay the amount or activity of a reporter protein is the signal.

The subject of assay [2] is human lymphoma SCC-3 cells. The assay is described as follows: Evaluation using human lymphoma-transplanted nude mice. Type of assay: in vivo, nude mouse. The note with it: 80 mg/kg orally once a day for 5 days, p < 0.05. The method, then: 1×10^6 human lymphoma SCC-3 cells (containing Matrigel) were subcutaneously transplanted to the flank part of each 6-week-old male nude mouse (BALB/cA-nu/nu, CLEA Japan, Inc.). After the transplantation, the tumor volumes [major axis (mm) and minor axis (mm)] of the SCC-3 cancer-bearing mice were measured using an electronic vernier caliper (CD-10, Mitutoyo Corp.), and tumor volumes [mm^3: (major axis)×(minor axis)^2/2] were calculated. SCC-3 cancer-bearing mice whose tumor volume reached 50 to 300 mm^3 were selected and divided based on the tumor volumes into groups each containing 5 individuals. A test compound was suspended in a 0.5% methylcellulose solution and orally administered at a dose of 0.01 mL/g body weight once a day for 5 days (Day 0 (administration initiation day) to Day 4). To a control group, none was administered. The tumor volumes of the SCC-3 cancer-bearing mice were measured every day from the initiation of test compound administration to evaluate antitumor effect. The antitumor effect was assessed by calculating T/C (%) values according to the following formula: • V: tumor volume on every assay day • V0: tumor volume on the administration initiation day (V/V0 of the test compound group)/(V/V0 of the control group)×100
Validity determination criteria for this system adopted the method of Inaba, et al. (Cancer, 1989, 64, 1577-1582).

Assay [3] deals with Human lymphoma SCC-3 cells. Put plainly: SCC-3 cell growth inhibition test (MTT method). Format: cell-based. Particulars: 72-hour culture. As to the method: Human lymphoma SCC-3 cells purchased from Japan Health Sciences Foundation were cultured for […] at a density of 5000 cells/well in a 96-well plate with RPMI1640 (Sigma-Aldrich Corp.) containing 10% fetal bovine serum (FBS; GIBCO) as a culture medium.
Simultaneously with cell inoculation, each test compound diluted to various concentrations with an RPMI medium was added to each well. After 72-hour culture, cell growth inhibitory activity was determined by the MTT method (J. Immunol. Methods, 1993, 65, 581-593) using a microplate reader (NJ-2300, BioTek Instruments, Inc.).
The test results were indicated in a concentration (IC50) at which 50% cell growth was inhibited.
(In general: Formazan colour is commonly taken as a measure of viable cells.)

For assay [4], the system named is MDA-MB-468. The assay is described as follows: MDA-MB-468 cell growth inhibitory activity. Format: cell-based. The note with it: Homo sapiens; compound at 20 μM; MDA-MB-468, 72 hours. The method, then: MDA-MB-468 diluted with phenol red-free DMEM/F-12 (GIBCO; 10% FBS, 20 units/ml penicillin/streptomycin) was inoculated at a concentration of 2000 cells/well to a 96-well plate (Greiner Bio-One) and cultured overnight at 37° C. in the presence of 5% CO2. Then, a test sample solution (containing 2 (v/v)% DMSO) adjusted to 10 μM was added thereto at a concentration of 10 μL/well and contacted with the cells at 37° C. for 72 hours in the presence of 5% CO2. Each well was washed three times with a medium. Then, after addition of 100 μL/well of a medium and 20 μL/well of CellTiter 96 AQueous, One Solution Reagent (Promega Corp.), the cells were incubated at 37° C. for 2 hours in the presence of 5% CO2. Absorbance at 495 nm was measured using Multiplate reader (Molecular Devices, Inc.), and the rate of inhibition of cell growth was calculated according to the following formula: Rate of inhibition of cell growth (%)=100−100×(Abschem−bkgd)/(AbsDMSO−bkgd) • Abschem: absorbance obtained by the addition of a test sample • AbsDMSO: absorbance obtained by the addition of only a solvent for test sample dissolution • bkgd: absorbance obtained by the addition of CellTiter 96 AQueous One Solution Reagent to a medium for cell culture
The test results were indicated in the rate of inhibition of cell growth by each compound at a concentration of 20 μM.

For `CC(C)(C)c1ccc(-c2cccc(C(=O)Nc3nnc(-c4ccco4)o3)c2)cc1` [Compound Ia-14, 4′-tert-Butyl-N-[5-(2-furyl)-1,3,4-oxadiazol-2-yl]-3-biphenylcarboxamide], the inhibition at 100 µM in assay [1] amounted to 57%. Further, in assay [2] (day 11 after administration), the “T/C (%)” value is recorded as 57%.
Regarding `CCCCOC(=O)c1ccc(-c2cccc(C(=O)Nc3nnc(-c4ccco4)o3)c2)cc1` [Compound Ia-23, 4′-n-Butoxycarbonyl-N-[5-(2-furyl)-1,3,4-oxadiazol-2-yl]-3-biphenylcarboxamide], the “T/C (%)” value in assay [2] (day 6 after administration) is recorded as 55%.
As to `O=C(Nc1nnc(-c2ccco2)o1)c1cc(-c2ccccc2)nc2nc(N3CCCCC3)sc12` [Compound Ib-1, N-[5-(2-Furyl)-1,3,4-oxadiazol-2-yl]-5-phenyl-2-piperidino-7-thiazolo[4,5-b]pyridinecarboxamide], in assay [1], the inhibition at 100 µM was greater than 100%. The compound further displayed an IC50 in assay [3] of 520 nM. Moreover, in assay [2] (day 18 after administration), the “T/C (%)” value turned out to be 52%. The inhibition at 20 µM in assay [4] was 96%.
As for `COc1ccc(-c2cc(C(=O)Nc3nnc(-c4ccco4)o3)c3sc(N4CCCCC4)nc3n2)cc1OC` [Compound Ib-4, N-[5-(2-Furyl)-1,3,4-oxadiazol-2-yl]-5-(3,4-dimethoxyphenyl)-2-piperidino-7-thiazolo[4,5-b]pyridinecarboxamide], the inhibition at 100 µM in assay [1] was greater than 100%. Further, it took 700 nM to reach half-maximal inhibition in assay [3] (IC50). This compound also displayed an inhibition at 20 µM in assay [4] of 78%.
